Laboratory results taken from patent US10829452B2, “Histone methyltransferase inhibitors” (GLOBAL BLOOD THERAPEUTICS, INC., priority 2016, dated 2020).
Counter-ions that a name gives are not always drawn.

Molecular target: T1, G9a (Homo sapiens, UniProt Q96KQ7)
T1 sequence (Q96KQ7 1-1210): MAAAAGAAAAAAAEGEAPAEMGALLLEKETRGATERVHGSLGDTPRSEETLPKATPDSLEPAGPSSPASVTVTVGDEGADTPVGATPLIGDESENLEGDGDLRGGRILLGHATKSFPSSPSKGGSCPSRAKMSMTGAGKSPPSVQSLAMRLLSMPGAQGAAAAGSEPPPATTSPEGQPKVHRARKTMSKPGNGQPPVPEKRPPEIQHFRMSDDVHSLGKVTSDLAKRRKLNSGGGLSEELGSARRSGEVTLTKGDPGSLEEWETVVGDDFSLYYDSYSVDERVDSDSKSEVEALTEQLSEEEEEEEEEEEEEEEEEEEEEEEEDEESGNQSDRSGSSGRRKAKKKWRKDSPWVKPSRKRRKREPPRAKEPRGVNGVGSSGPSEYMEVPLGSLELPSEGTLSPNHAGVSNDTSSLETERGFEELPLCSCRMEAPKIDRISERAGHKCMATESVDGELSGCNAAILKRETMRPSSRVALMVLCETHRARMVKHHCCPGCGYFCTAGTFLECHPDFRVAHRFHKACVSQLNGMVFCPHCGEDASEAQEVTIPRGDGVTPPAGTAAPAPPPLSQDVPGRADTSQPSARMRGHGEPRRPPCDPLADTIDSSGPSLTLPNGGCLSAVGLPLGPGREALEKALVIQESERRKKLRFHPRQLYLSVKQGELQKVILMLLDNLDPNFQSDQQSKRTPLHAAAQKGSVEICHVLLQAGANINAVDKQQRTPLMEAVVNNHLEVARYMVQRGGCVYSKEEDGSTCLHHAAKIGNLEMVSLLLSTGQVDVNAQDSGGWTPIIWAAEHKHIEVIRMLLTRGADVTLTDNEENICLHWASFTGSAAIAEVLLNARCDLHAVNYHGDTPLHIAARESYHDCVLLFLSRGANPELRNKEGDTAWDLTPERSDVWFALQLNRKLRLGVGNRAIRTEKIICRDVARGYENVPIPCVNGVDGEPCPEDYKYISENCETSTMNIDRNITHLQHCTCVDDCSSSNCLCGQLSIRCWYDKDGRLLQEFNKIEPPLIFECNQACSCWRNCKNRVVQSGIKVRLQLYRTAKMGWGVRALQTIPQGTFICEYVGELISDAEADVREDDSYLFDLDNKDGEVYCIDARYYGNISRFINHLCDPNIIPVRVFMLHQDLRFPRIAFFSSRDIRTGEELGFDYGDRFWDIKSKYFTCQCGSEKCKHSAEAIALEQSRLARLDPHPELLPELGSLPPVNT
Experiment: G9a AlphaLISA enzymatic activity assay
Format: biochemical
Conditions: 0.15 nM G9a, 15 uM S-adenosyl-methionine, 100 nM biotinylated histone 3 peptide (1-21), 1 hour at room temperature; read-out: G9a in (uM) (IC50, concentration that produced 50% inhibition)
How it was run: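 Human G9a (0.15 nM) methylated 100 nM biotinylated histone H3(1-21) peptide with 15 uM SAM in Tris-HCl pH9 buffer with NaCl, Tween-20 and DTT, 1 h at room temperature. H3K9me2 was detected by AlphaLISA acceptor/streptavidin donor beads (20 ug/mL each); IC50 from percent inhibition across compound dilutions.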

| IC50 [µM] | Compound |
| --- | --- |
| 0.1 | COc1cc2c3c(c(NCC4CCC4)nc2cc1OCCCN1CCCC1)CC(C)(C)C3 [Example 96, N-(cyclobutylmethyl)-8-methoxy-2,2-dimethyl-7-(3-(pyrrolidin-1-yl)propoxy)-2,3-dihydro-1H-cyclopenta[c]quinolin-4-amine formate] |
| 0.009 | COc1cc2c3c(c(C4CC4)nc2cc1OCCCN1CCCC1)CC(C)(C)N3 [Example 36, 1-[3-({4-cyclopropyl-8-methoxy-2,2-dimethyl-1H,2H,3H-pyrrolo[3,2-c]quinolin-7-yl}oxy)propyl]pyrrolidine formate] |
| > 10 | COc1cc2c3c(c(NC(C)C)nc2cc1OCCCN1CCC(C)(C)C1)CCC3 [Example 86, 7-[3-(3,3-dimethylpyrrolidin-1-yl)propoxy]-8-methoxy-N-(propan-2-yl)-1H,2H,3H-cyclopenta[c]quinolin-4-amine formate] |
| 0.043 | COc1cc2c3c(c(N[C@H]4CCCC[C@@H]4O)nc2cc1OCCCN1CCCC1)CCC3 [Example 122, (1S,2S)-2-({8-methoxy-7-[3-(pyrrolidin-1-yl)propoxy]-1H,2H,3H-cyclopenta[c]quinolin-4-yl}amino)cyclohexan-1-ol formate] |
| 0.027 | COc1cc2c3c(c(NCC(C)C)nc2cc1OCCCN1CCCC1)CCC3 [Example 103, 8-methoxy-N-(2-methylpropyl)-7-[3-(pyrrolidin-1-yl)propoxy]-1H,2H,3H-cyclopenta[c]quinolin-4-amine trifluoroacetate] |
| 0.14 | CNc1nc2cc(OCCCN3CCCC3)c(OC)cc2c2c1CC(O)CC2 (stereo not drawn) [Example 61, 2-methoxy-6-(methylamino)-3-[3-(pyrrolidin-1-yl)propoxy]-7,8,9,10-tetrahydrophenanthridin-8-ol formate] |
| 0.6 | COc1cc2c3c(c(-c4coc(C)c4)nc2cc1OCCCN1CCCC1)CCC3 [Example 90, 1-(3-{[8-methoxy-4-(5-methylfuran-3-yl)-1H,2H,3H-cyclopenta[c]quinolin-7-yl]oxy}propyl)pyrrolidine formate] |
| 1 | COc1cc2c3c(c(N[C@H]4CCC[C@H]4O)nc2cc1OCCCN1CCCC1)CCC3 (racemic) [Example 125, (1R,2S)-2-({8-methoxy-7-[3-(pyrrolidin-1-yl)propoxy]-1H,2H,3H-cyclopenta[c]quinolin-4-yl}amino)cyclopentan-1-ol and (1S,2R)-2-({8-methoxy-7-[3-(pyrrolidin-1-yl)propoxy]-1H,2H,3H-cyclopenta[c]quinolin-4-yl}amino)cyclopentan-1-ol (1:1) mixture as formate salt] |
| 0.003 | CNc1nc2cc(OCCCN3CCCC3)c(OC)cc2c2c1CCN2 [Example 22, 8-methoxy-N-methyl-7-[3-(pyrrolidin-1-yl)propoxy]-1H,2H,3H-pyrrolo[3,2-c]quinolin-4-amine trifluoroacetate] |
| 0.045 | COc1cc2c3c(c(NC4CCC4)nc2cc1OCCCN1CCCC1)CCC3 [Example 7, N-cyclobutyl-8-methoxy-7-[3-(pyrrolidin-1-yl)propoxy]-1H,2H,3H-cyclopenta[c]quinolin-4-amine formate] |
| 0.11 | COc1cc2c3c(c(NCCC#N)nc2cc1OCCCN1CCCC1)CCC3 [Example 119, 3-({8-methoxy-7-[3-(pyrrolidin-1-yl)propoxy]-1H,2H,3H-cyclopenta[c]quinolin-4-yl}amino)propanenitrile formate] |
| 5.8 | COc1cc2c3c(c(NC4COC4)nc2cc1OCCCN1CCCC1)CCC3 [Example 44, 8-methoxy-N-(oxetan-3-yl)-'7-[3-(pyrrolidin-1-yl)propoxy]-1H,2H,3H-cyclopenta[c]quinolin-4-amine formate] |
| 0.66 | COc1cc2c3c(c(NC(C)C)nc2cc1OCCCN1CCCCC1)CCC3 [Example 85, 8-methoxy-7-[3-(piperidin-1-yl)propoxy]-N-(propan-2-yl)-1H,2H,3H-cyclopenta[c]quinolin-4-amine formate] |
| 0.027 | COc1cc2c3c(c(NC(C)C)nc2cc1OCCCN1CCCC1)CC(C)C3 (stereo not drawn) [Example 6, 8-methoxy-2-methyl-N-(propan-2-yl)-7-[3-(pyrrolidin-1-yl)propoxy]-1H,2H,3H-cyclopenta[c]quinolin-4-amine formate] |
| 0.003 | COc1cc2c3c(c(NC(C)C)nc2cc1OCCCN1CCCC1)CCN3 [Example 23, 8-methoxy-N-(propan-2-yl)-7-[3-(pyrrolidin-1-yl)propoxy]-1H,2H,3H-pyrrolo[3,2c]-quinolin-4-amine trifluoroacetate] |
| > 10 | COc1cc2c3c(c(N(C)c4ccccc4)nc2cc1OCCCN1CCCC1)CCC3 [Example 69, 8-methoxy-N-methyl-N-phenyl-7-[3-(pyrrolidin-1-yl)propoxy]-1H,2H,3H-cyclopenta[c]quinolin-4-amine trifluoroacetate] |
| 0.057 | COc1cc2c3c(c(NC4CC4)nc2cc1OCCCN1CCCC1)CCCC3 [Example 19, N-cyclopropyl-2-methoxy-3-[3-(pyrrolidin-1-yl)propoxy]-7,8,9,10-tetrahydrophenanthridin-6-amine formate] |
| 2 | COc1cc2c3c(c(NCC(F)(F)F)nc2cc1OCCCN1CCCC1)CCCC3 [Example 67, 2-methoxy-3-[3-(pyrrolidin-1-yl)propoxy]-N-(2,2,2-trifluoroethyl)-7,8,9,10-tetrahydrophenanthridin-6-amine formate] |
| 0.14 | CNc1nc2cc(OCCCN3CCCC3)c(OC)cc2c2c1CC(O)CC2 (stereo not drawn) [Example 20, 2-methoxy-6-(methylamino)-3-[3-(pyrrolidin-1-yl)propoxy]-7,8,9,10-tetrahydrophenanthridin-8-ol formate] |
| 1.6 | CC(C)Nc1nc2cc(OCCCN3CCCC3)c(O)cc2c2c1CCC2 [Example 84, 4-[(propan-2-yl)amino]-7-[3-(pyrrolidin-1-yl)propoxy]-1H,2H,3H-cyclopenta[c]quinolin-8-ol trifluoroacetate] |
| 0.15 | COc1cc2c3c(c(NCCC(C)C)nc2cc1OCCCN1CCCC1)CC(C)(C)C3 [Example 87, 8-methoxy-2,2-dimethyl-N-(3-methylbutyl)-7-[3-(pyrrolidin-1-yl)propoxy]-1H,2H,3H-cyclopenta[c]quinolin-4-amine formate] |
